Columns and labels:
ERRγ [1] = target: T1, ERRγ (Homo sapiens, UniProt P62508); settings: for example in the presence of PGC-1a; cited from earlier work
T1 sequence (P62508 1-458): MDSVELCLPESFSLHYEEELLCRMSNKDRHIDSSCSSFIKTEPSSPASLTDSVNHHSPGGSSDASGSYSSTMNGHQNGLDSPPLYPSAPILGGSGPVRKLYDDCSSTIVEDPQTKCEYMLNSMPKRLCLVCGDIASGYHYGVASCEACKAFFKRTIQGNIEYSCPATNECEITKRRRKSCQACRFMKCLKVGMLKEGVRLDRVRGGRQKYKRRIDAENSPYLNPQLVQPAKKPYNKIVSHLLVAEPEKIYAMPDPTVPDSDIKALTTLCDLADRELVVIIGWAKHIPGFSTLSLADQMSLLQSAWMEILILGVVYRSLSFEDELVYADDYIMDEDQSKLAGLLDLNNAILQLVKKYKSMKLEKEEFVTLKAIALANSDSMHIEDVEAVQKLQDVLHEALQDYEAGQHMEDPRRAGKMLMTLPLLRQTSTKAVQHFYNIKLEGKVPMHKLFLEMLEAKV

ERRα = target: T2, ERRα (Homo sapiens, UniProt P11474); settings: for example in the presence of PGC-1a; cited from earlier work
T2 sequence (P11474 1-423): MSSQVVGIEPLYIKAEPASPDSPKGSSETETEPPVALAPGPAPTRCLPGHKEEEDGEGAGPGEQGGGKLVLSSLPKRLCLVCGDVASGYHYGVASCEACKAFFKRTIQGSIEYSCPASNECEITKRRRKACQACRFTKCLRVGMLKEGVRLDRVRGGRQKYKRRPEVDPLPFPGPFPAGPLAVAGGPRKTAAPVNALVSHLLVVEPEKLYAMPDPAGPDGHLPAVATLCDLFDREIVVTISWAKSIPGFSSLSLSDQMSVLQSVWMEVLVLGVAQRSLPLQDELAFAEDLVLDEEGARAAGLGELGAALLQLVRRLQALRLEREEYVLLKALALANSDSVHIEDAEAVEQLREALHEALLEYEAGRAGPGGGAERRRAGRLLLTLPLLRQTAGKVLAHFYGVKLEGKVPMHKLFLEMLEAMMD

ERRβ = target: T3, ERRβ (Homo sapiens, UniProt O95718); settings: for example in the presence of PGC-1a; cited from earlier work
T3 sequence (O95718 1-433): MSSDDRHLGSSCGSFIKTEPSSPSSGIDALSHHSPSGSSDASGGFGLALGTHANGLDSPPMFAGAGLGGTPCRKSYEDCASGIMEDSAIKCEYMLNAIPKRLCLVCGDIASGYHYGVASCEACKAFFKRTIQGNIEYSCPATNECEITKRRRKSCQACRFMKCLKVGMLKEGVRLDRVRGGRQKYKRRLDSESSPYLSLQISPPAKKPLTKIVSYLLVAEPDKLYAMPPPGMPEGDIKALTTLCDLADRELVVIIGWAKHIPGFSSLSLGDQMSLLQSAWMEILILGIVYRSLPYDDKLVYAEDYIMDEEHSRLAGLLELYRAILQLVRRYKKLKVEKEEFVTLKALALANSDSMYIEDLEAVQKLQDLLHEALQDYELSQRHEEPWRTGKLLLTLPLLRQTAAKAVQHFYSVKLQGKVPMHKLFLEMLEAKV

[2] = tested on: control flox/flox (WT) and ERRγ ASKO (KO) mice; test: Oxygen consumption (VO2, CLAMS) after intraperitoneal injection of beta adrenergic agonist in mice; format: in vivo, mouse
Method: ERRγ flox/flox mice were crossed with adiponectin-Cre mice (Jackson Laboratory) to generate ERRγ-ASKO mice. ERRγ-ASKO mice and flox/flox control littermates received a standard chow diet (MI laboratory rodent diet 5001, Harlan Teklad) or high fat (60%) diet (F3282, Bio-Serv) and water ad libitum. All mice used for studies were male unless otherwise noted. Mice were housed at thermoneutrality (30° C.) unless otherwise indicated. PPARα null mice were purchased from Jackson laboratory.
Oxygen consumption (VO2) was measured using the Comprehensive Laboratory Animal Monitoring System (CLAMS; Columbus, Ohio). Data were normalized to body weights. Body temperatures were assessed using a RET-3 rectal probe for mice (Physitemp). CL316243 (Sigma) and norepinephrine were intraperitoneally injected into mice at 1 mg/kg body weight.

ERRγ [3] = target: T1, ERRγ; settings: cited from earlier work
[4] = tested on: differentiated PAZ-6 brown adipocytes; test: Seahorse XF oxygen consumption assay in differentiated PAZ-6 brown adipocytes; format: cell-based, human
Method: PAZ-6 human brown adipocytes were differentiated as previously described (18). Human adipose derived stem cells were cultured as previously described.
Bioenergetic profiles were analyzed using a XF24XF analyzer (Seahorse Bioscience) and the XF Palmitate-BSA FAO Substrate (Seahorse Bioscience).

| SMILES | activation of ERRγ (ERRγ [1]) | activation of ERRα (ERRα) | activation of ERRβ (ERRβ) | also measured |
| --- | --- | --- | --- | --- |
| CCc1ccc(C=NNC(=O)c2ccc(O)cc2)s1 [DY164] | activate | activate | activate |  |
| Cc1cccc(C=NNC(=O)c2ccc(O)cc2)c1 [DY159] | activate | activate | activate |  |
| C[C@H](Cc1ccc2c(c1)OC(C(=O)[O-])(C(=O)[O-])O2)NC[C@H](O)c1cccc(Cl)c1.[Na+].[Na+] [CL316243] |  |  |  | response (VO2, RER) to injection ([2]; ERRγ-ASKO female mice at thermoneutrality, 1 mg/kg BW intraperitoneal): blunted |
| Nc1ccc(C(=O)N/N=C/c2ccc(/N=N/c3ccccc3)cc2)cn1 [E6] |  |  |  | selectivity for ERRγ over ERRα and β (ERRγ [3]): selective for ERRγ but not ERRα and β |
| Cc1ccc(/C=N/NC(=O)c2ccc(O)cc2)cc1 [DY163] | activate | activate | activate |  |
| O=C(NN=Cc1ccccc1)c1ccc(O)cc1 [DY162] | activate | activate | activate |  |
| CC(C)c1ccc(/C=N/NC(=O)c2ccc(O)cc2)cc1 [GSK4716] |  |  |  | Increase in oxygen consumption rate in the presence or absence of palmitate ([4]; differentiated PAZ-6, 10 μM overnight, with vs without palmitate (FIG. 5M)): only occurred in the presence of fatty acids; proton leak or uncoupling ([4]; differentiated PAZ-6 treated overnight with 10 μM vs DMSO vehicle): higher; Oxygen consumption rate ([4]; differentiated PAZ-6 treated overnight with 10 μM vs DMSO vehicle, in the presence of fatty acids (palmitate)): higher |
| NC[C@H](O)c1ccc(O)c(O)c1 [NE, norepinephrine] |  |  |  | metabolic rate (VO2) response upon injection ([2]; ERRγ-ASKO mice at thermoneutrality, 1 mg/kg intraperitoneal): severely blunted; metabolic rate (oxygen consumption, VO2) upon injection ([2]; control flox/flox mice at thermoneutrality, 1 mg/kg intraperitoneal): increased |
